By ΔTm is commonly meant the shift of the melting midpoint relative to a reference. By KD is commonly meant the concentration at which binding is half-saturated.

Each structure is given as a SMILES string.

The test system of test [1] is BCL-2 RT template (RNA, G4) UAAUACGACUCACUAUAGGGCAUGCCAAGGGGGAAACACCAGAAUCAAGUGUUCCGCGUGAUUGAAGACACCCCCUCGUCCAAGAAUGCAAAGCACAUCCAGGGGGCCGUGGGGUGGGAGCUGGGGAUAAAAUAGCUGGAUUAUAACUCCUCUUCUUUCUCUCGAGAGGUGCCGUUGGCCCCCGUUGCUUUUCCUCUGGGAAGGAUG
As to the kind of experiment: reverse transcriptase stop assay, qPCR. The settings on record: MgCl2 (concentration not stated), 10 µM compound, 100 nM template, 37°C.

Test [2] deals with RNA G-quadruplex (VEGF), unlabelled (RNA, G4) GGAGGAGGGGGAGGAGG
Nature of the test: CD melting. The following applies: 100 mM KCl/NaCl (so in the source); 10 mM Tris pH 7.4; 3:1 OMT/G-quadruplex; 10 µM RNA; Tm 72.7 to 76.3.

The test system of test [3] is mut 1 (RNA, G4) GGAUGAGUGGGAGGAGG
As to the kind of experiment: SPR. The settings on record: 100 mM KCl; 10 mM HEPES pH 7.4, 25°C; printed kd/ka gives 3.9e-3.

In test [4] the test system is DNA double strand (DNA, duplex) GCGCGCGCGCGCGCGCGCGCGCGC
Nature of the test: UV melting. The settings on record: 100 mM KCl/NaCl (so in the source); 10 mM Tris pH 7.4.

The test system of test [5] is NRAS RNA G-quadruplex (SPR) (RNA, G4) UGUGGGAGGGGCGGGUCUGGG
As to the kind of experiment: SPR. The following applies: 100 mM KCl; 10 mM HEPES pH 7.4, 25°C; highest OMT 200 µM.

In test [6] the test system is mut 3 (RNA, G4) GGAGGAGGGUGAGUAGG
Nature of the test: SPR. The settings on record: 100 mM KCl; 10 mM HEPES pH 7.4, 25°C; highest OMT 200 µM.

In test [7] the test system is mut 4 (RNA, G4) UGAGGAGGGGGAGGAUG
As to the kind of experiment: SPR. The following applies: 100 mM KCl; 10 mM HEPES pH 7.4, 25°C; highest OMT 200 µM.

The subject of test [8] is mut 2 (RNA, G4) UGAGGAGGGUGAGGAGG
As to the kind of experiment: SPR. The settings on record: 100 mM KCl; 10 mM HEPES pH 7.4, 25°C; printed kd/ka gives 1.01e-2.

Test [9] relates to RNA G-quadruplex (VEGF), unlabelled (RNA, G4) GGAGGAGGGGGAGGAGG
As to the kind of experiment: ESI-MS. The settings on record: 100 mM trimethylammonium acetate; 50% methanol; 10 µM RNA, 30 µM OMT.

Test [10] relates to BCL-2 RNA G-quadruplex (SPR) (RNA, G4) GGGGGCCGUGGGGUGGGAGCUGGGG
Nature of the test: SPR. The following applies: 100 mM KCl; 10 mM HEPES pH 7.4, 25°C; highest OMT 200 µM.

As for `C[n+]1ccc(-c2c3nc(c(-c4cc[n+](C)cc4)c4ccc([nH]4)c(-c4cc[n+](C)cc4)c4nc(c(-c5cc[n+](C)cc5)c5ccc2[nH]5)C=C4)C=C3)cc1`, in test [1] (not a binding constant), the ΔCt was > 2.

Turning to `O=C1CCC[C@@H]2[C@H]3CCC[N+]4([O-])CCC[C@@H](CN12)[C@@H]34` (some centres unmarked), the shift in melting temperature (ΔTm) in test [2] was 3.6 °C. Besides, the dissociation constant (KD) in test [3] came to 39 µM; in test [8] it was 101 µM. In addition, the binding result is on record as “no” in test [4]; “no” in test [5]; “no” in test [6]; “no” in test [7]; “no” in [1]; “yes” in [9]. The binding entry in test [10] was “no”.

The values are drawn from publication PMC8630693 (2021).
